Data set [1] relates to Canis familiaris. As to the kind of experiment: Clearance in iv dosed Beagle dog relative to hepatic blood flow. To be noted: in vivo. Format: ADME, organism-based, Canis lupus familiaris.
Data set [2] can be described thus: Clearance in human hepatocytes relative to hepatic blood flow. To be noted: read-out: CLH. In kind it is ADME, cell-based, Hepatocyte.
Data set [3] in a line: Unbound plasma concentration in ACTH-stimulated cynomolgus monkey at 0.1 mg/kg, iv administered 5 mins before ACTH challenge measured at 15 mins post dose. Format: ADME, organism-based, Macaca fascicularis. To be noted: in vivo, 0.25 h.
Data set [4] is described as follows: Inhibition of cynomolgus monkey adrenal mitochondrial CYP11B1 using 11-deoxycortisol as substrate after 90 mins in presence of NADPH by mass spectrometric analysis.
Data set [5] can be described thus: Unbound plasma concentration in ACTH-stimulated cynomolgus monkey at 0.1 mg/kg, iv administered 5 mins before ACTH challenge measured after 3 hrs. Format: ADME, organism-based, Macaca fascicularis. The settings on record: in vivo.
Data set [6] can be described thus: Clearance in Beagle dog hepatocytes relative to hepatic blood flow. Format: ADME, cell-based, Canis lupus familiaris, Hepatocyte. The settings on record: read-out: CLH.
A short description of data set [7]: Plasma concentration in ACTH-stimulated cynomolgus monkey at 0.1 mg/kg, iv administered 5 mins before ACTH challenge measured at 15 mins post dose. In kind it is ADME, organism-based, Macaca fascicularis.
The subject of data set [8] is Cynomolgus monkey. As to the kind of experiment: In vivo inhibition of ACTH-stimulated aldosterone level in cynomolgus monkey assessed as change in plasma aldosterone AUC (0 to 3 hrs) at 1 mg/kg, iv administered 5 mins before ACTH challenge relative to control. Also noted: scale not given: the % may be the effect or the level left. Format: functional, Macaca fascicularis.

Data set [9] is filed under the species Macaca fascicularis. As to the kind of experiment: Selectivity index, ratio of IC50 for cynomolgus monkey adrenal mitochondrial CYP11B1 to IC50 for cynomolgus monkey adrenal mitochondrial CYP11B2.
The target in data set [10] is T1, Aromatase (Homo sapiens, UniProt P11511).
T1 sequence (P11511 whole entry): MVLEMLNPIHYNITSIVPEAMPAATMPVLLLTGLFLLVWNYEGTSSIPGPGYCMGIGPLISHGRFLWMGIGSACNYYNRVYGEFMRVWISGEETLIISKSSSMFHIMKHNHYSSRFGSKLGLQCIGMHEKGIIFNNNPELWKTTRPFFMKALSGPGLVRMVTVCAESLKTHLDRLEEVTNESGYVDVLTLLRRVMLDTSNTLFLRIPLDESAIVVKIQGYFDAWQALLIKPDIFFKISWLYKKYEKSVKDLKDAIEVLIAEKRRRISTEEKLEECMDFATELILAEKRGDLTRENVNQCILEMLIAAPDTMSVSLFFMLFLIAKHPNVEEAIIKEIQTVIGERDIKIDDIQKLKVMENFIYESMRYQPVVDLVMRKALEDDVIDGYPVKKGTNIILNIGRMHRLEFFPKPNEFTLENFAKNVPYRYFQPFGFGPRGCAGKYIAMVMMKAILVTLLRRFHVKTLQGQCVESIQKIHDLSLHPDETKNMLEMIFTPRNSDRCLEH
As to the kind of experiment: Inhibition of CYP19A1 (unknown origin).

Data set [11] concerns Cynomolgus monkey. As to the kind of experiment: Effect on ACTH-stimulated plasma cortisol level in cynomolgus monkey up to 8 mg/kg, iv administered 5 mins before ACTH challenge measured after 3 hrs. Format: ADME, organism-based, Macaca fascicularis. To be noted: in vivo.
Data set [12] concerns the target Cytochrome P450 2D6 (Homo sapiens, UniProt P10635). As to the kind of experiment: Inhibition of CYP2D6 (unknown origin) at 30 uM. In kind it is ADME.
In data set [13] the target is T1, Aromatase. As to the kind of experiment: Inhibition of CYP19A1 (unknown origin) at 20 uM.
In data set [14] the target is Cytochrome P450 2C9 (Homo sapiens, UniProt P11712). As to the kind of experiment: Inhibition of CYP2C9 (unknown origin) at 30 uM. In kind it is ADME.
Cytochrome P450 2C9, sequence (P11712 whole entry): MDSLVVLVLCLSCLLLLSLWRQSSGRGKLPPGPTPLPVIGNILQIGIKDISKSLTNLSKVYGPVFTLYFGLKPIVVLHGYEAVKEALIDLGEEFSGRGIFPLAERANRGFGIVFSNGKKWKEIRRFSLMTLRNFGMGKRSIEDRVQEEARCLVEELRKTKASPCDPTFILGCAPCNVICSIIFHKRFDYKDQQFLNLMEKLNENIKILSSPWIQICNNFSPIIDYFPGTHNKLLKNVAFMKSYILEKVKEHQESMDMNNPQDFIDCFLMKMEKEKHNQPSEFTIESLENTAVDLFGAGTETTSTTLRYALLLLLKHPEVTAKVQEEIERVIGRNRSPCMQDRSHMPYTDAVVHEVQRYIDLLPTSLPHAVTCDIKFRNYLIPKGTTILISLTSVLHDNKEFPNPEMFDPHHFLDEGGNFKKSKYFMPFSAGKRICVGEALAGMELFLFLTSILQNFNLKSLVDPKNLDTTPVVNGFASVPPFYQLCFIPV
Data set [15] can be described thus: Plasma concentration in ACTH-stimulated cynomolgus monkey at 8 mg/kg, iv administered 5 mins before ACTH challenge measured at 15 mins post dose. Format: ADME, organism-based, Macaca fascicularis.
Data set [16] is described as follows: Clearance in cynomolgus monkey hepatocytes relative to hepatic blood flow. In kind it is ADME, cell-based, Macaca fascicularis, Hepatocyte. To be noted: read-out: CLH.
In data set [17] the test system is Rattus norvegicus. As to the kind of experiment: Clearance in iv dosed Wistar Han rat relative to hepatic blood flow. In kind it is ADME, organism-based. To be noted: in vivo.
The nature of data set [18]: Unbound plasma concentration in ACTH-stimulated cynomolgus monkey at 8 mg/kg, iv administered 5 mins before ACTH challenge measured at 15 mins post dose. In kind it is ADME, organism-based, Macaca fascicularis. To be noted: in vivo, 0.25 h.
For data set [19], the system named is Cynomolgus monkey. As to the kind of experiment: In vivo inhibition of ACTH-stimulated aldosterone level in iv dosed cynomolgus monkey assessed as change in plasma aldosterone AUC (0 to 3 hrs) administered 5 mins before ACTH challenge. Format: functional, organism-based. The settings on record: Macaca fascicularis.
Data set [20] has as its target T2, Steroid 17-alpha-hydroxylase/17,20 lyase (Homo sapiens, UniProt P05093).
T2 sequence (P05093 whole entry): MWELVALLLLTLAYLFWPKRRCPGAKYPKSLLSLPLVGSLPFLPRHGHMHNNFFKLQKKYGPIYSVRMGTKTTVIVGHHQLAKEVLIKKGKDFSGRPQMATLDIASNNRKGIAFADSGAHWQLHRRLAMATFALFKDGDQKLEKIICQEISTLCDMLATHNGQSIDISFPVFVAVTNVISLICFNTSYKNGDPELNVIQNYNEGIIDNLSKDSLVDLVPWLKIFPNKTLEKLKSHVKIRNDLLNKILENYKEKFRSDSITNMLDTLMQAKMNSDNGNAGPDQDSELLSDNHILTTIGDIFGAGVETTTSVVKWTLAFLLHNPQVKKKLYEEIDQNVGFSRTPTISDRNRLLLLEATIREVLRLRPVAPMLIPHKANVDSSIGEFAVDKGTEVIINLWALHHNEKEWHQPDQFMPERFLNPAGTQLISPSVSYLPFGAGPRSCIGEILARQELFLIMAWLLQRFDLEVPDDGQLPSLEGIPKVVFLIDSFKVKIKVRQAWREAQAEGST
Description: Inhibition of CYP17A1 (unknown origin). In kind it is ADME.

Data set [21] can be described thus: Oral bioavailability in Wistar Han rat. Format: ADME, organism-based. To be noted: in vivo.
Data set [22] deals with Cynomolgus monkey. Description: Clearance in iv dosed cynomolgus monkey relative to hepatic blood flow. Format: ADME, organism-based, Macaca fascicularis. To be noted: in vivo.
Data set [23] is described as follows: Oral bioavailability in Beagle dog. In kind it is ADME, organism-based, Canis lupus familiaris. The settings on record: in vivo.
For data set [24], the target named is Cytochrome P450 3A4 (Homo sapiens, UniProt P08684). As to the kind of experiment: Inhibition of CYP3A4 (unknown origin) at 30 uM. Format: ADME.
Cytochrome P450 3A4, sequence (P08684 whole entry): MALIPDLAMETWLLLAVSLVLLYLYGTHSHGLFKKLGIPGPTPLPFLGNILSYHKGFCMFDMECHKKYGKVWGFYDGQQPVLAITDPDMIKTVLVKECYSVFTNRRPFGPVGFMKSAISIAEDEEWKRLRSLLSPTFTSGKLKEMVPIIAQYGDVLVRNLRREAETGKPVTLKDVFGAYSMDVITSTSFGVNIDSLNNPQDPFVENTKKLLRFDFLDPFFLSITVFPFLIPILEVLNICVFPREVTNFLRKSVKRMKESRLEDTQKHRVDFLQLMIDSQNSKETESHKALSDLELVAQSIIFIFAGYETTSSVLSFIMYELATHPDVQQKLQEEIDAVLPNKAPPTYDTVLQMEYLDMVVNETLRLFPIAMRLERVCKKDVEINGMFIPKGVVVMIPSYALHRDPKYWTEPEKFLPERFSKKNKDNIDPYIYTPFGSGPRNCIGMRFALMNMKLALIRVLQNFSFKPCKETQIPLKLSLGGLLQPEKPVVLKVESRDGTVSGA
For data set [25], the system named is Cynomolgus monkey. As to the kind of experiment: In vivo inhibition of ACTH-stimulated aldosterone level in cynomolgus monkey assessed as change in plasma aldosterone AUC (0 to 3 hrs) at 8 mg/kg, iv administered 5 mins before ACTH challenge relative to control. Format: functional, Macaca fascicularis. Details: scale not given: the % may be the effect or the level left; call rule not given here.

Data set [26] in a line: Inhibition of cynomolgus monkey adrenal mitochondrial CYP11B2 using corticosterone as substrate after 60 mins in presence of NADPH by mass spectrometric analysis.
Data set [27] can be described thus: Plasma concentration in ACTH-stimulated cynomolgus monkey at 0.1 mg/kg, iv administered 5 mins before ACTH challenge measured after 3 hrs. In kind it is ADME, organism-based, Macaca fascicularis.
Data set [28] in a line: Clearance in Wistar Han rat hepatocytes relative to hepatic blood flow. Format: ADME, cell-based, Hepatocyte. The settings on record: read-out: CLH.
Data set [29] concerns Cynomolgus monkey. Description: In vivo inhibition of ACTH-stimulated aldosterone level in cynomolgus monkey assessed as change in plasma aldosterone AUC (0 to 3 hrs) at 0.1 mg/kg, iv administered 5 mins before ACTH challenge relative to control. Format: functional, Macaca fascicularis. Also noted: scale not given: the % may be the effect or the level left.
Data set [30] is described as follows: Clearance in human liver microsomes relative to hepatic blood flow. In kind it is ADME, microsome. To be noted: read-out: CLH. A general note: Microsomes from liver hold many membrane-bound enzymes, among them those of drug oxidation.
Data set [31] can be described thus: Oral bioavailability in cynomolgus monkey. Format: ADME, organism-based, Macaca fascicularis. To be noted: in vivo.
The nature of data set [32]: Drug metabolism in human hepatocytes assessed as 3-(4-fluorobenzyl)-6,6-dimethyl-4,5,6,7-tetrahydrobenzo[c]isoxazol-4-ol formation at 10 uM after 30 mins by LC-MS/MS analysis. Format: ADME, cell-based, Hepatocyte. The settings on record: 0.5 h.
A short description of data set [33]: Drug metabolism in human hepatocytes assessed as 3-Amino-2-[2-(4-fluoro-phenyl)-acetyl]-5,5-dimethyl-cyclohex-2-enone metabolite formation at 10 uM after 30 mins by HPLC analysis. In kind it is ADME, cell-based, Hepatocyte. To be noted: 0.5 h.
Data set [34] is described as follows: Drug metabolism in human hepatocytes assessed as parent compound remaining at 10 uM after 30 mins by LC-MS/MS analysis. Format: ADME, cell-based, Hepatocyte. The settings on record: read-out: Stability.
Data set [35] can be described thus: Drug metabolism in human hepatocytes assessed as 3-Amino-2-[2-(4-fluoro-phenyl)-acetyl]-5,5-dimethyl-cyclohex-2-enone metabolite formation at 10 uM after 30 mins by LC-MS/MS analysis. In kind it is ADME, cell-based, Hepatocyte. To be noted: 0.5 h.
Data set [36] is described as follows: Drug metabolism in human hepatocytes at 10 uM after 30 mins by LC-MS/MS analysis. In kind it is ADME, cell-based, Hepatocyte. The settings on record: read-out: Drug metabolism.

Cytochrome P450 2D6, sequence (P10635 whole entry): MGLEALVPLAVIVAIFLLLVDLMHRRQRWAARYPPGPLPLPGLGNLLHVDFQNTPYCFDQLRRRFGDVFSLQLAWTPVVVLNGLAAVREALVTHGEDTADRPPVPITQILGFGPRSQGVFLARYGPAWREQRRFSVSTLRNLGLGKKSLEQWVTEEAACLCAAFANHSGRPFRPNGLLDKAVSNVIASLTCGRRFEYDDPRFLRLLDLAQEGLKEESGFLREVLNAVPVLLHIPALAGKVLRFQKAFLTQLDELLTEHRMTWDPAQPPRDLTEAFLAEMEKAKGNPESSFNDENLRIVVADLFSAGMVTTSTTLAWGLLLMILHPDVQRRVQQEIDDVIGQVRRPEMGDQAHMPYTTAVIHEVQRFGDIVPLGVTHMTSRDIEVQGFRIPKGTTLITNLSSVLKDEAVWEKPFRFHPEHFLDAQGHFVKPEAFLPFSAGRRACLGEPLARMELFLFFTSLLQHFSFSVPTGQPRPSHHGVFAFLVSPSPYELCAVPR

One may read the pIC50 as −log10 of the IC50, conventionally taken in molar units. What is called IC50 is the midpoint of a concentration-inhibition curve. Broadly, the bioavailability is the share of a dose that reaches the circulation, judged against a reference dose that is usually intravenous. Turning to `CN(CCO)C(=O)c1ccc(Cc2onc3c2C(=O)CC(C)(C)C3)cc1`, the results for the CL in data set [1], in data set [17] and in data set [22] were 9.7%, 24% and 32%, respectively. Moreover, the hepatic extraction ratio in data set [2] is below 0.21; in data set [6] it was below 0.3; in data set [16], 0.34; in data set [28] it was 0.52; in [30], below 0.24. In addition, the “Cp(f)” value in data set [3] came to 93 nM; in [5] it was 46 nM; in data set [18] it was 5700 nM. The results for the pIC50 in [4] and in data set [26] were 5 and 7, respectively. Moreover, the concentration at 0.25 h came out at 160 nM in [7] and 9600 nM in data set [15]. The Activity in data set [8] is listed as -87.9%; in data set [11], “Non-Toxic”; in data set [25] it was -92.3%; in data set [29], -62.4%. Also, in [9], the Ratio IC50 stood at 100. Besides, the IC50 in [10] was above 31.6 µM; in [20] it was above 31.6 µM; in data set [26], 0.092 µM. For the same compound, the “inhibition (INH)” value in data set [12], in data set [13], in data set [14] and in data set [24] was “Not Active” each time. Moreover, the inhibition entry in [19] was “Dose-dependent effect”. The bioavailability in data set [21] was determined as 14%; in data set [23], 91%; in [31], 91%. The concentration at 3 h in data set [27] was 78 nM.

For `CC1(C)CC(=O)c2c(noc2Cc2ccc(F)cc2)C1`, the hepatic extraction ratio in data set [2] is 0.91; in data set [30] it was below 0.24. The Drug metabolism entry in [32], in data set [33] and in [35] was “Metabolite_Detected” each time. The pIC50 in data set [4] stood at 4.7; in data set [26], 6.8. Further, the Ratio IC50 in [9] is 130. In addition, the remaining at 0.5 h, 10 µM in data set [34] came to 28%. Also, the metabolised at 0.5 h, 10 µM in [36] is 72%.

The record behind these values is ChEMBL document CHEMBL4184185, “Dihydrobenzisoxazole-4-one compounds are novel selective inhibitors of aldosterone synthase (CYP11B2) with in vivo activity” (Bioorg Med Chem Lett, 2018).
